In brackets after ≈: the same amount, converted by molar mass. Read-outs that look alike come from different tables or passages of the source.
Experiments:
Format in all cases: cell-based
[1] = tested on: S. aureus Linezolid-resistant; cfr; experiment: MIC, Gram-positive bacteria: S. aureus Linezolid-resistant; cfr; details: Staphylococcus aureus, column 9, read-out: Minimal Inhibitory Concentration (MIC) S. aureus Linezolid-resistant
[2] = tested on: S. aureus Vat A streptogramin; experiment: MIC, Gram-positive bacteria: S. aureus Vat A streptogramin; details: Staphylococcus aureus; Gram-positive; column 5; read-out: Minimal Inhibitory Concentration (MIC) S. aureus Vat A streptogramin
[3] = tested on: Gram-Negative Organisms; experiment: microbe, parasite or virus in culture
[4] = tested on: E. faecium VRE; vanA; experiment: MIC, Gram-positive bacteria: E. faecium VRE; vanA; details: Enterococcus faecium, column 3, read-out: Minimal Inhibitory Concentration (MIC) E. faecium VRE
[5] = tested on: S. pneumoniae; experiment: MIC, Gram-positive bacteria: S. pneumoniae; details: Streptococcus pneumoniae, column 10, read-out: Minimal Inhibitory Concentration (MIC) S. pneumoniae
[6] = tested on: E. faecalis; experiment: MIC, Gram-positive bacteria: E. faecalis; details: Enterococcus faecalis, column 1, read-out: Minimal Inhibitory Concentration (MIC) E. faecalis
[7] = tested on: P. aeruginosa MDR clinical isolate; experiment: MIC, Gram-negative bacteria: P. aeruginosa MDR clinical isolate; details: Pseudomonas aeruginosa, read-out: Minimal Inhibitory Concentration (MIC) P. aeruginosa MDR clinical isolate
[8] = tested on: E. faecium ATCC 35667; experiment: MIC, Gram-positive bacteria: E. faecium ATCC 35667; details: Enterococcus faecium, ATCC35667, column 2, read-out: Minimal Inhibitory Concentration (MIC) E. faecium ATCC 35667
[9] = tested on: P. aeruginosa ATCC 27853; experiment: MIC, Gram-negative bacteria: P. aeruginosa ATCC 27853; details: Pseudomonas aeruginosa, ATCC27853, read-out: Minimal Inhibitory Concentration (MIC) P. aeruginosa ATCC 27853
[10] = tested on: K. pneumoniae multidrug-resistant; experiment: MIC, Gram-negative bacteria: K. pneumoniae multidrug-resistant; details: Klebsiella pneumoniae, read-out: Minimal Inhibitory Concentration (MIC) K. pneumoniae multidrug-resistant
[11] = tested on: S. aureus; experiment: MIC, Gram-positive bacteria: S. aureus (strains not named); details: Staphylococcus aureus, read-out: Minimal Inhibitory Concentration (MIC) S. aureus
[12] = tested on: H. influenzae ATCC 49247; experiment: MIC, Gram-negative bacteria: H. influenzae ATCC 49247; details: Haemophilus influenzae, ATCC49247, read-out: Minimal Inhibitory Concentration (MIC) H. influenzae ATCC 49247
[13] = Acinetobacter baumannii, ATCC19606, read-out: Minimal Inhibitory Concentration (MIC), A. baumannii ATCC 19606
[14] = Escherichia coli, ATCC25922, read-out: Minimal Inhibitory Concentration (MIC), E. coli ATCC 25922
[15] = Escherichia coli, read-out: Minimal Inhibitory Concentration (MIC), E. coli BAS2006, OMP C, OMP F
[16] = Escherichia coli, read-out: Minimal Inhibitory Concentration (MIC), E. coli olC efflux defective
[17] = Escherichia coli, read-out: Minimal Inhibitory Concentration (MIC), E. coli permeability mutant BAS1314, IMP4213ZAB::TN10
[18] = Klebsiella pneumoniae, ATCC43816, read-out: Minimal Inhibitory Concentration (MIC), K. pneumoniae ATCC 43816
[19] = first unnamed S. aureus column (c4)
[20] = fourth unnamed S. aureus column (c8)
[21] = second unnamed S. aureus column (c6)
[22] = third unnamed S. aureus column (c7)

SMILES | MIC [1] [µg/mL] | MIC [2] [µg/mL] | MIC [3, 13] [µg/mL] | MIC [3, 14] [µg/mL] | MIC [3, 15] [µg/mL] | MIC [3, 16] [µg/mL] | MIC [3, 17] [µg/mL] | MIC [3, 18] [µg/mL] | MIC [4] [µg/mL] | MIC [5] [µg/mL] | MIC [6] [µg/mL] | MIC [7] [µg/mL] | MIC [8] [µg/mL] | MIC [9] [µg/mL] | MIC [10] [µg/mL] | MIC [11, 19] [µg/mL] | MIC [11, 20] [µg/mL] | MIC [11, 21] [µg/mL] | MIC [11, 22] [µg/mL] | MIC [12] [µg/mL]
CC1=C\[C@@H](O)CC(=O)Cc2nc(co2)C(=O)N2CCC[C@@H]2C(=O)O[C@H]([C@@H](C)CO)[C@H](C)/C=C/C(=O)NC\C=C\1 [SA0110026] | > 64 | > 64 | > 64 | > 64 | 64 (≈ 118 µM) | 32 (≈ 58.9 µM) | 64 (≈ 118 µM) | > 64 | > 64 | 64 (≈ 118 µM) | > 64 | > 64 | 64 (≈ 118 µM) | > 64 | > 64 | > 64 | > 64 | > 64 | > 64 | 64 (≈ 118 µM)
CC1=C\[C@@H](O)CC(=O)Cc2nc(co2)C(=O)N2CCC[C@@H]2C(=O)O[C@H]([C@@H](C)COC(=O)Nc2ccc(F)cc2)[C@H](C)/C=C/C(=O)NC\C=C\1 [SA0110036] | > 64 | > 64 | > 64 | > 64 | 8 (≈ 11.8 µM) | 2 (≈ 2.94 µM) | 8 (≈ 11.8 µM) | > 64 | 32 (≈ 47 µM) | 16 (≈ 23.5 µM) | > 64 | > 64 | 8 (≈ 11.8 µM) | > 64 | > 64 | 32 (≈ 47 µM) | 16 (≈ 23.5 µM) | 32 (≈ 47 µM) | > 64 | > 64
CC1=C\[C@@H](O)CC(=O)Cc2nc(co2)C(=O)N2CCC[C@@H]2C(=O)O[C@H]([C@@H](C)COC(=O)Nc2ccc(C)cc2)[C@H](C)/C=C/C(=O)NC\C=C\1 [SA0110037] | > 64 | > 64 | > 64 | > 64 | 16 (≈ 23.6 µM) | 4 (≈ 5.91 µM) | 8 (≈ 11.8 µM) | > 64 | 64 (≈ 94.6 µM) | 16 (≈ 23.6 µM) | > 64 | > 64 | 16 (≈ 23.6 µM) | > 64 | > 64 | 32 (≈ 47.3 µM) | 16 (≈ 23.6 µM) | 32 (≈ 47.3 µM) | 64 (≈ 94.6 µM) | > 64
COc1ccc(NC(=O)OC[C@H](C)[C@H]2OC(=O)[C@H]3CCCN3C(=O)c3coc(n3)CC(=O)C[C@H](O)/C=C(C)/C=C/CNC(=O)/C=C/[C@H]2C)cc1 [SA0110040] | > 64 | > 64 | > 64 | > 64 | 16 (≈ 23.1 µM) | 2 (≈ 2.89 µM) | 8 (≈ 11.5 µM) | > 64 | 64 (≈ 92.4 µM) | 16 (≈ 23.1 µM) | > 64 | > 64 | 16 (≈ 23.1 µM) | > 64 | > 64 | 32 (≈ 46.2 µM) | 16 (≈ 23.1 µM) | 32 (≈ 46.2 µM) | 64 (≈ 92.4 µM) | 16 (≈ 23.1 µM)
CC1=C\[C@@H](O)CC(=O)Cc2nc(co2)C(=O)N2CCC[C@@H]2C(=O)O[C@H]([C@@H](C)COC(=O)Nc2ccc(OC(F)(F)F)cc2)[C@H](C)/C=C/C(=O)NC\C=C\1 [SA0110041] | > 64 | > 64 | > 64 | > 64 | > 64 | 8 (≈ 10.7 µM) | 8 (≈ 10.7 µM) | > 64 | > 64 | > 64 | > 64 | > 64 | 8 (≈ 10.7 µM) | > 64 | > 64 | > 64 | 32 (≈ 42.9 µM) | > 64 | > 64 | > 64
CC1=C\[C@@H](O)CC(=O)Cc2nc(co2)C(=O)N2CCC[C@@H]2C(=O)O[C@H]([C@@H](C)COC(=O)Nc2ccccc2)[C@H](C)/C=C/C(=O)NC\C=C\1 [SA0110043] | > 64 | > 64 | > 64 | > 64 | 16 (≈ 24.1 µM) | 2 (≈ 3.02 µM) | 8 (≈ 12.1 µM) | > 64 | 64 (≈ 96.6 µM) | 16 (≈ 24.1 µM) | > 64 | > 64 | 16 (≈ 24.1 µM) | > 64 | > 64 | 32 (≈ 48.3 µM) | 32 (≈ 48.3 µM) | 32 (≈ 48.3 µM) | 64 (≈ 96.6 µM) | 32 (≈ 48.3 µM)
CC1=C\[C@@H](O)CC(=O)Cc2nc(co2)C(=O)N2CCC[C@@H]2C(=O)O[C@H]([C@@H](C)COC(=O)Nc2ccc(C(F)(F)F)cc2)[C@H](C)/C=C/C(=O)NC\C=C\1 [SA0110044] | > 64 | > 64 | > 64 | > 64 | > 64 | 16 (≈ 21.9 µM) | 16 (≈ 21.9 µM) | > 64 | > 64 | > 64 | > 64 | > 64 | 16 (≈ 21.9 µM) | > 64 | > 64 | > 64 | 32 (≈ 43.8 µM) | > 64 | > 64 | > 64
CC1=C\[C@@H](O)CC(=O)Cc2nc(co2)C(=O)N2CCC[C@@H]2C(=O)O[C@H]([C@@H](C)COC(=O)Nc2cccnc2)[C@H](C)/C=C/C(=O)NC\C=C\1 [SA0110067] | > 64 | > 64 | > 64 | > 64 | 64 (≈ 96.4 µM) | 8 (≈ 12.1 µM) | 32 (≈ 48.2 µM) | > 64 | > 64 | 32 (≈ 48.2 µM) | > 64 | > 64 | 32 (≈ 48.2 µM) | > 64 | > 64 | > 64 | 64 (≈ 96.4 µM) | > 64 | > 64 | > 64
CC1=C\[C@@H](O)CC(=O)Cc2nc(co2)C(=O)N2CCC[C@@H]2C(=O)O[C@H]([C@@H](C)COC(=O)Nc2ccnc(Br)c2)[C@H](C)/C=C/C(=O)NC\C=C\1 [SA0110081] | > 64 | > 64 | > 64 | > 64 | 32 (≈ 43.1 µM) | 4 (≈ 5.39 µM) | 32 (≈ 43.1 µM) | > 64 | > 64 | 32 (≈ 43.1 µM) | > 64 | > 64 | 32 (≈ 43.1 µM) | > 64 | > 64 | > 64 | 32 (≈ 43.1 µM) | > 64 | > 64 | > 64
CC1=C\[C@@H](O)CC(=O)Cc2nc(co2)C(=O)N2CCC[C@@H]2C(=O)O[C@H]([C@@H](C)COC(=O)Nc2ccc(Br)nc2)[C@H](C)/C=C/C(=O)NC\C=C\1 [SA0110082] | > 64 | > 64 | > 64 | > 64 | 32 (≈ 43.1 µM) | 4 (≈ 5.39 µM) | 16 (≈ 21.5 µM) | > 64 | > 64 | 8 (≈ 10.8 µM) | > 64 | > 64 | 32 (≈ 43.1 µM) | > 64 | > 64 | > 64 | 32 (≈ 43.1 µM) | > 64 | > 64 | 64 (≈ 86.2 µM)
CC1=C\[C@@H](O)CC(=O)Cc2nc(co2)C(=O)N2CCC[C@@H]2C(=O)O[C@H]([C@@H](C)COC(=O)Nc2coc(C)n2)[C@H](C)/C=C/C(=O)NC\C=C\1 [SA0110095] | > 64 | > 64 | > 64 | > 64 | 32 (≈ 47.9 µM) | 8 (≈ 12 µM) | 16 (≈ 24 µM) | > 64 | > 64 | 16 (≈ 24 µM) | > 64 | > 64 | 32 (≈ 47.9 µM) | > 64 | > 64 | > 64 | 64 (≈ 95.8 µM) | > 64 | > 64 | 64 (≈ 95.8 µM)

Source: patent US20200325177A1, “METHODS OF MAKING STREPTOGRAMIN COMPOSITIONS AND THE USE THEREOF” (THE REGENTS OF THE UNIVERSITY OF CALIFORNIA, priority 2017, published 2020)
